The values that follow come from DBAASP.

Each structure is given as a SMILES string. Converted amounts (≈) assume the structure as drawn.

Common to all, as to assay: ≥ marks a high value that may be exact or a test limit, other limits are often not marked, values filed in µg/mL are converted to µM
Assay [1] relates to Fusarium graminearum.
Assay [2] relates to Pseudomonas aeruginosa H744.
In assay [3] the test system is Burkholderia cepacia ATCC 25416.
In assay [4] the test system is Escherichia coli UB1005.
Assay [5] concerns Salmonella enterica subsp. enterica serovar Typhimurium ATCC 14028s.
Assay [6] deals with Pseudomonas aeruginosa H547.
Assay [7] deals with Pseudomonas aeruginosa Z61.
The test system of assay [8] is Pseudomonas aeruginosa K799.
Assay [9] deals with Staphylococcus aureus ATCC 29213.
Assay [10] relates to Bacillus subtilis ATCC 23857.
The test system of assay [11] is Pseudomonas aeruginosa 73.
Assay [12] relates to Pseudomonas aeruginosa ATCC 27853.
The subject of assay [13] is Klebsiella pneumoniae ATCC 700603.
Assay [14] relates to Acinetobacter baumannii ATCC 19606.
For assay [15], the system named is Escherichia coli 780.
Assay [16] has as its system Escherichia coli 804.
Assay [17] has as its system Staphylococcus epidermidis ATCC 12228.
Assay [18] has as its system Staphylococcus aureus 113.
In assay [19] the test system is Staphylococcus aureus 75.
The test system of assay [20] is Acinetobacter baumannii 9931.
In assay [21] the test system is Pseudomonas aeruginosa ATCC 9027.
The test system of assay [22] is Acinetobacter baumannii 97830.
The subject of assay [23] is Pseudomonas aeruginosa 50.
The test system of assay [24] is Escherichia coli.
Assay [25] relates to Staphylococcus aureus.
Assay [26] relates to Bifidobacterium longum subsp. infantis.
In assay [27] the test system is Vibrio harveyi.
Assay [28] concerns Aeromonas hydrophila.
Assay [29] has as its system Yersinia enterocolitica.
The subject of assay [30] is Staphylococcus aureus ATCC 43300.
The test system of assay [31] is Salmonella sp.
Assay [32] deals with Salmonella enterica subsp. enterica serovar Enteritidis.
The test system of assay [33] is Escherichia coli ATCC 25922.
Assay [34] relates to Cryptococcus neoformans ATCC 32264.

`CSCC[C@H](NC(=O)[C@H](Cc1cnc[nH]1)NC(=O)[C@H](CCCCN)NC(=O)CNC(=O)[C@H](CC(N)=O)NC(=O)[C@H](CCCN=C(N)N)NC(=O)[C@@H](NC(=O)[C@H](Cc1cnc[nH]1)NC(=O)[C@H](CS)NC(=O)[C@H](C)NC(=O)CNC(=O)[C@H](Cc1cnc[nH]1)NC(=O)[C@@H](NC(=O)[C@H](C)NC(=O)CNC(=O)[C@H](CCC(=O)O)NC(=O)[C@@H](N)Cc1c[nH]c2ccccc12)C(C)C)C(C)C)C(=O)N[C@@H](CS)C(=O)O` [WEGAVHGACHVRNGKHMC] came in with an MIC in assay [1] of 20 µM (≈ 39.8 µg/mL).
For the compound `CC[C@H](C)[C@H](NC(=O)CNC(=O)[C@@H](NC(=O)[C@H](CCCCN)NC(=O)[C@H](CCCCN)NC(=O)[C@H](Cc1ccccc1)NC(=O)[C@H](CCCCN)NC(=O)[C@H](Cc1c[nH]c2ccccc12)NC(=O)[C@@H](N)CCCCN)[C@@H](C)CC)C(=O)NCC(=O)N[C@@H](C)C(=O)N[C@H](C(=O)N[C@@H](CC(C)C)C(=O)N[C@@H](CCCCN)C(=O)N[C@H](C(=O)N[C@@H](CC(C)C)C(=O)N[C@H](C(=O)N[C@H](C(=O)NCC(=O)N[C@@H](CC(C)C)C(=O)N1CCC[C@H]1C(=O)N[C@@H](C)C(=O)N[C@@H](CC(C)C)C(=O)N[C@@H](CCCCN)C(=O)N[C@@H](CC(C)C)C(=O)N[C@H](C(=O)N[C@@H](CC(C)C)C(=O)N[C@@H](CCCCN)C(=O)O)[C@@H](C)O)[C@@H](C)O)[C@@H](C)O)C(C)C)C(C)C` [KWKFKKIGIGAVLKVLTTGLPALKLTLK], the MIC in [2] is 0.326 µM (≈ 1 µg/mL); in [3] it was 20.9 µM (≈ 64 µg/mL); in assay [4] it was 0.652 µM (≈ 2 µg/mL); in assay [5], 1.3 µM (≈ 4 µg/mL); in assay [6] it was 0.652 µM (≈ 2 µg/mL); in assay [7] it was 1.63 µM (≈ 5 µg/mL). Further, the MIC in [8] stood at 1.96 µM (≈ 6 µg/mL).
Take `CC(C)C[C@H](NC(=O)[C@H](Cc1c[nH]c2ccccc12)NC(=O)[C@H](CCCN=C(N)N)NC(=O)[C@H](Cc1c[nH]c2ccccc12)NC(=O)[C@H](Cc1c[nH]c2ccccc12)NC(=O)[C@H](Cc1c[nH]c2ccccc12)NC(=O)[C@H](CCCN=C(N)N)NC(=O)[C@H](Cc1c[nH]c2ccccc12)NC(=O)[C@@H](N)CC(C)C)C(N)=O` [LWRWWWRWL]: the MIC in [9] is 4 µM (≈ 5.95 µg/mL); in assay [10] it was 4 µM (≈ 5.95 µg/mL); in assay [11] it was no less than 64 µM; in assay [12] it was 128 µM (≈ 190 µg/mL); in assay [13], 8 µM (≈ 11.9 µg/mL); in assay [14], 16 µM (≈ 23.8 µg/mL). Besides, the MIC was 16 µM (≈ 23.8 µg/mL) in assay [15]; no less than 32 µM in assay [16]; 4 µM (≈ 5.95 µg/mL) in [17]; 4 µM (≈ 5.95 µg/mL) in assay [18]; 4 µM (≈ 5.95 µg/mL) in assay [19]; 16 µM (≈ 23.8 µg/mL) in [20]. The results for the MIC in assay [21], in [22] and in assay [23] were 32 µM (≈ 47.6 µg/mL), 8 µM (≈ 11.9 µg/mL) and no less than 32 µM, respectively.
For `CC(C)C[C@H](NC(=O)[C@H](CC(N)=O)NC(=O)[C@@H]1CCCN1C(=O)[C@@H](N)CCCN=C(N)N)C(=O)N[C@@H](Cc1cnc[nH]1)C(=O)N1CCC[C@H]1C(=O)N[C@@H](CO)C(=O)O` [RPNLHPS], the MIC in [24] was 3660 µM (≈ 3000 µg/mL); in assay [25] it was 3660 µM (≈ 3000 µg/mL); in [26] it was no less than 3660 µM.
For the compound `CC[C@H](C)[C@H](NC(=O)[C@H](C)NC(=O)[C@H](CCCN=C(N)N)NC(=O)[C@H](Cc1cnc[nH]1)NC(=O)[C@@H](NC(=O)[C@H](C)NC(=O)[C@H](CCCN=C(N)N)NC(=O)[C@@H](NC(=O)CNC(=O)[C@H](Cc1cnc[nH]1)NC(=O)[C@H](CO)NC(=O)[C@@H](NC(=O)[C@H](Cc1c[nH]c2ccccc12)NC(=O)CNC(=O)[C@@H](NC(=O)[C@@H](NC(=O)[C@H](Cc1cnc[nH]1)NC(=O)[C@H](Cc1cnc[nH]1)NC(=O)[C@@H](NC(=O)[C@@H](N)Cc1ccccc1)[C@@H](C)CC)[C@@H](C)CC)[C@@H](C)CC)[C@@H](C)CC)C(C)C)[C@@H](C)CC)C(=O)N[C@@H](Cc1cnc[nH]1)C(N)=O` [FIHHIIGWISHGVRAIHRAIH], the values for the minimal inhibitory concentration (MIC) in assay [27] and in assay [28] were 8 µM (≈ 19.8 µg/mL) and 16 µM (≈ 39.5 µg/mL), respectively.
As to `CC[C@H](C)[C@H](NC(=O)[C@H](CCCCN)NC(=O)[C@@H](NC(=O)[C@H](Cc1c[nH]c2ccccc12)NC(=O)[C@H](Cc1ccccc1)NC(=O)[C@H](CCC(N)=O)NC(=O)[C@H](CC(N)=O)NC(=O)[C@H](CCCN=C(N)N)NC(=O)[C@H](CCCN=C(N)N)NC(=O)[C@H](CCSC)NC(=O)[C@H](CCCCN)NC(=O)[C@H](Cc1c[nH]c2ccccc12)NC(=O)[C@H](CCCCN)NC(=O)[C@@H](N)CCCCN)[C@@H](C)CC)C(=O)N[C@@H](CCC(N)=O)C(=O)N[C@@H](CCCN=C(N)N)C(N)=O` [KKWKMRRNQFWIKIQR], the MIC in assay [9] is greater than 50 µM; in assay [12], greater than 50 µM; in assay [29] it was no less than 50 µM; in assay [30] it was greater than 50 µM; in assay [24], 25 µM (≈ 56.1 µg/mL); in [31], 25 µM (≈ 56.1 µg/mL). The MIC in assay [32] is 25 µM (≈ 56.1 µg/mL); in assay [33], greater than 50 µM.
Consider `NCCCC[C@H](NC(=O)[C@H](CCCCN)NC(=O)[C@H](CCC(N)=O)NC(=O)[C@@H](N)CCCN=C(N)N)C(N)=O` [RQKK], for which, in [34], the MIC was no less than 100 µM.
